Laboratory results as given in patent US20140357512A1, “HISTONE DEACETYLASE (HDAC) BIOMARKERS IN MULTIPLE MYELOMA” (priority 2013, published 2014).

System: human myeloma cell line MM.1S
Assay: SILAC acetylated-lysine peptide profiling, HDAC inhibitor vs DMSO (light/heavy ratio)
Assay type: cell-based
Description: An embodiment of the invention comprises utilizing the SILAC method in order to quantitate changes in protein expression between two or more populations of cells. The SILAC method is a technique based on mass spectrometry that detects differences in protein abundance among samples using non-radioactive isotopic labeling. The SILAC method is known in the art, and described in detail in Ong et al., “Stable Isotope Labeling by Amino Acids in Cell Culture, SILAC, as a Simple and Accurate Approach to Expression Proteomics”, Molecular & Cellular Proteomics, vol. 1, pp. 376-386 (2002), which is incorporated herein by reference in its entirety.
Briefly, the SILAC method involves growing two populations of cells in cell culture. The first population of cells is grown in growth media containing normal amino acids (“normal media”). The second population of cells is grown in media lacking a standard essential amino acid (such as lysine), but is then supplemented with a non-radioactive, isotopically labeled form of that essential amino acid (such as lysine labeled with ^13C atoms, rather than normal ^12C atoms), which is called “heavy media”. When the two populations of cells are each growing in the medium, they incorporate the amino acids into all of their proteins. The growth of cells maintained in the heavy media is no different from that in normal media. All peptides containing the heavy amino acids are heavier than their normal counterparts. The cells from each of the two populations of cells are lysed. The lysates from each of the two cell populations are then combined. The combined cell lysates are then analyzed by mass spectrometry. Pairs of chemically identical peptides of different stable isotope composition can be differentiated in a mass spectrometer due to their difference in mass. The ratio of peak intensities in the mass spectrum for such peptide pairs reflects the abundance ratio for the two proteins.
This example describes SILAC studies that were performed to compare the effects of three different HDAC inhibitors (Compound A, Compound B, and tubastatin A) to a control on a human multiple myeloma cell line. The HDAC inhibitors were also compared amongst themselves to determine differences in their effects.
A human myeloma cell line MM.1S was grown using either ^12C (light) or ^13C (heavy) lysine containing culture medium. The “heavy” cells were treated with DMSO as the control, and the “light” cells were treated with a single HDAC inhibitor at 37° C. for 6 hours. The heavy and light cells were lysed, and the lysates were mixed in 1:1 ratio and digested with the protease trypsin. The acetylated lysine containing peptides (due to the action of the HDAC inhibitor) in the digested peptide pool were captured by a non-specific anti-acetylated lysine antibody cocktail (the antibodies identify both light and heavy acetylated peptides), and subjected to mass spectrometry analysis in order to identify thousands of individual peptides.
Thousands of peptides were identified in pairs (^12C and ^13C) due to their known mass differences. The amino acid sequence and quantitative ratio (Light/Heavy) of a given peptide in two differentially treated cell lysates were then determined and annotated with their possible protein (gene) sources.
As stated above, three HDAC inhibitors (Compound A, Compound B, and Tubastatin A) were used. Thus, the SILAC method was performed three times, with a different HDAC inhibitor compared to a control each time. Accordingly, there are three pairs of quantitative data in the table below, i.e., Compound A:DMSO, Compound B:DMSO, and Tubastatin A:DMSO. A cut-off of 1.30 fold of change (increase or decrease) was then used to determine “changed” or “+” in the table, and any peptides with a fold of change less than 1.3 fold were determined to be “unchanged” or “0” in the table. Those peptides that were not identified were marked as “NA” in the table. […]

O=C(NO)c1cnc(NC2(c3cccc(F)c3)CCCCC2)nc1 [Compound B, 2-((1-(3-fluorophenyl)cyclohexyl)amino)-N-hydroxypyrimidine-5-carboxamide]
L/H ratio of acetylated peptide ([…](ac)HLSASQK (SEQ ID NO: 381), Cytochrome c oxidase subunit 4 isoform 1 mitochondrial [53], COX4I1): −0.63 log 2
light to heavy ratio (L/H ratio) of acetylated peptide, log 2 scale ([…](ac)IFK (SEQ ID NO: 157), cDNA FLJ59630 highly similar to Growth hormone-inducible transmembrane protein [76], GHITM): 0.00
light to heavy ratio (L/H ratio) of acetylated peptide, log 2 scale ([…](ac)IVIQK (SEQ ID NO: 165), Isoform A1-B of Heterogeneous nuclear ribonucleoprotein A1 [161], HNRNPA1): 0.00
light to heavy ratio (L/H ratio) of acetylated peptide, log 2 scale ([…](ac)K (SEQ ID NO: 242), Vimentin [235], VIM): 0.00
L/H ratio of acetylated peptide ([…](ac)K (SEQ ID NO: 427), Profilin-1 [126], PFN1): 0.58 log 2
light to heavy ratio (L/H ratio) of acetylated peptide, log 2 scale ([…](ac)LFR (SEQ ID NO: 136), B-cell receptor-associated protein 31 [95], BCAP31): 0.00
L/H ratio of acetylated peptide ([…](ac)LHIVK (SEQ ID NO: 378), Chloride intracellular channel protein 4 [194], CLIC4): 0.51 log 2
light to heavy ratio (L/H ratio) of acetylated peptide, log 2 scale ([…](ac)LLPHIR (SEQ ID NO: 208), 60S acidic ribosomal protein P0 [77], RPLP0): 0.00
L/H ratio of acetylated peptide ([…](ac)VNSK (SEQ ID NO: 430), Isoform 1 of Inorganic pyrophosphatase 2 mitochondrial [69], PPA2): 0.91 log 2
L/H ratio of acetylated peptide ([…](ac)WK (SEQ ID NO: 453), Lupus La protein [328], SSB): 0.57 log 2
L/H ratio of acetylated peptide ([…](ac)YLNFVK (SEQ ID NO: 405), Endoplasmin [428], HSP90B1): 0.77 log 2
L/H ratio of acetylated peptide ([…](ac)YQEALAK (SEQ ID NO: 450), Superoxide dismutase [Mn] mitochondrial [68], SOD2): −0.67 log 2
light to heavy ratio (L/H ratio) of acetylated peptide, log 2 scale ([…](ac)[…] (SEQ ID NO: 132), ATP synthase subunit b mitochondrial [221], ATP5F1): 0.00
light to heavy ratio (L/H ratio) of acetylated peptide, log 2 scale ([…](ac)[…] (SEQ ID NO: 139), cDNA FLJ55574 highly similar to Calnexin [217], CANX): 0.00
light to heavy ratio (L/H ratio) of acetylated peptide, log 2 scale ([…](ac)[…] (SEQ ID NO: 145), Isoform 1 of Cellular nucleic acid-binding protein [118], CNBP): 0.00
L/H ratio of acetylated peptide ([…](ac)[…] (SEQ ID NO: 372), Calreticulin [98], CALR): −0.43 log 2
L/H ratio of acetylated peptide ([…](ac)[…] (SEQ ID NO: 387), D-dopachrome decarboxylase [87], DDT): −0.44 log 2
L/H ratio of acetylated peptide ([…](ac)[…] (SEQ ID NO: 399), Guanine nucleotide-binding protein subunit beta-2-like 1 [139], GNB2L1): 0.54 log 2
L/H ratio of acetylated peptide ([…](ac)[…] (SEQ ID NO: 408), Isoform 1 of Isocitrate dehydro-genase [NAD] subunit alpha mitochondrial [77], IDH3A): −0.44 log 2
L/H ratio of acetylated peptide ([…](ac)[…] (SEQ ID NO: 455), Isoform 1 of Translocon-associated protein subunit alpha [102], SSR1): −0.88 log 2
L/H ratio of acetylated peptide ([…](ac)[…] (SEQ ID NO: 466), Voltage-dependent anion-selective channel protein 1 [266], VDAC1): −0.66 log 2
L/H ratio of acetylated peptide ([…](ac)[…] (SEQ ID NO: 469), Isoform 1 of Voltage-dependent anion-selective channel protein 3 [266], VDAC3): −0.71 log 2
light to heavy ratio (L/H ratio) of acetylated peptide YDGK(ac)WEVEEMK (SEQ ID NO: 274) (cDNA FLJ55574 highly similar to Calnexin [138], CANX, drug:DMSO): 0.00 log 2
light to heavy ratio (L/H ratio) of acetylated peptide LNK(ac)PFLFDTK (SEQ ID NO: 327) (cDNA FLJ55574 highly similar to Calnexin [172], CANX, drug:DMSO): 0.43 log 2
light to heavy ratio (L/H ratio) of acetylated peptide NFK(ac)SISK (SEQ ID NO: 356) (cDNA FLJ56425 highly similar to Very-long-chain specific acyl-CoAdehydrogenase mitochondrial [681], ACADVL, drug:DMSO): 0.44 log 2
light to heavy ratio (L/H ratio) of acetylated peptide LPSSTK(ac)SGWPR (SEQ ID NO: 500) (cDNA FLJ75110 highly similar to Homo sapiens PHD finger protein 15 (PHF15) mRNA [38], gene PHF15, inhibitor:DMSO): 0.00 log 2
light to heavy ratio (L/H ratio) of acetylated peptide IINEVSK(ac)[…] (SEQ ID NO: 341) (cDNA FLJ77177 highly similar to Homo sapiens arginine-rich mutated in early stage tumors (ARMET) mRNA [97], MANF, drug:DMSO): −0.58 log 2
light to heavy ratio (L/H ratio) of acetylated peptide TNVPVK(ac)LFAR (SEQ ID NO: 348) (cDNA FLJ77422 highly similar to Homo sapiens RNA binding protein autoantigenic (hnRNP-associated with lethal yellow homolog (mouse)) transcript variant 1 mRNA (Fragment) [165], RALY, drug:DMSO): 0.39 log 2
light to heavy ratio (L/H ratio) of acetylated peptide EIAQEFK(ac)TDLR (SEQ ID NO: 337) (histone cluster 2 H3 pseudogene 2 [80], HIST2H3PS2, drug:DMSO): −0.49 log 2
light to heavy ratio (L/H ratio) of acetylated peptide SK(ac)SDPIMLLK (SEQ ID NO: 255) (pyruvate dehydrogenase E1 component subunit alpha somatic form mitochondrial isoform 2 precursor [351], PDHA1, drug:DMSO): 0.00 log 2
light to heavy ratio (L/H ratio) of acetylated peptide VTNLLMLK(ac)GK (SEQ ID NO: 350) (regulator of differentiation 1 isoform 2 [64], ROD1, drug:DMSO): 0.83 log 2
light to heavy ratio (L/H ratio) of acetylated peptide LTSLNVK(ac)YNNDK (SEQ ID NO: 590) (regulator of differentiation 1 isoform 2 [236], gene ROD1, inhibitor:DMSO): 0.00 log 2
light to heavy ratio (L/H ratio) of acetylated peptide GWLK(ac)[…] (SEQ ID NO: 278) (triosephosphate isomerase isoform 2 [231], TPI1, TPI1P1, drug:DMSO): 0.00 log 2
